Values of other authors as cited in US20100069292A1, “INSULIN WITH A BASAL RELEASE PROFILE” (Biodel, Inc., priority 2008, published 2010).

Assays:
[1] = in vivo
[2] = patients, compared with NPH insulin

Substance: insulin glargine
- duration of blood glucose lowering after injection [1]: up to 24 hours
- risk of low blood glucose (hypoglycemia) [2]: much lower risk of low blood glucose (hypoglycemia) than the patients who took NPH insulin
